Measurements published in the kinase profiling compilation of Christmann-Franck et al. (2016).

Assays:
Test in all cases: radiometric filter-binding kinase assay, Kinase HotSpot
Conditions in all cases: compound 0.5 µM; ATP 10 µM
CAMK2D (human) = CAMK2D (human) (UniProt Q13557)
EPHA4 (human) = EPHA4 (human) (UniProt P54764)
BRAF (human) = BRAF (human) (UniProt P15056)
EPHA6 (human) = EPHA6 (human) (UniProt Q9UF33)
STK38 (human) = STK38 (human) (UniProt Q15208)
CDK2 CCNA2 (human) = CDK2 CCNA2 (human) (UniProt P24941+P20248)
MINK1 (human) = MINK1 (human) (UniProt Q8N4C8)
CDK1 CCNB1 (human) = CDK1 CCNB1 (human) (UniProt P06493+P14635)
[1] = target: JAK1 JH1 catalytic (human) (UniProt P23458)
BRSK2 (human) = BRSK2 (human) (UniProt Q8IWQ3)
PKN2 (human) = PKN2 (human) (UniProt Q16513)
ULK3 (human) = ULK3 (human) (UniProt Q6PHR2)
NEK9 (human) = NEK9 (human) (UniProt Q8TD19)
MAPK11 (human) = MAPK11 (human) (UniProt Q15759)
SRC (human) = SRC (human) (UniProt P12931)
GSG2 (human) = GSG2 (human) (UniProt Q8TF76)
PHKG1 (human) = PHKG1 (human) (UniProt Q16816)
Sequence of PHKG1 (human) (Q16816 whole entry, looked up): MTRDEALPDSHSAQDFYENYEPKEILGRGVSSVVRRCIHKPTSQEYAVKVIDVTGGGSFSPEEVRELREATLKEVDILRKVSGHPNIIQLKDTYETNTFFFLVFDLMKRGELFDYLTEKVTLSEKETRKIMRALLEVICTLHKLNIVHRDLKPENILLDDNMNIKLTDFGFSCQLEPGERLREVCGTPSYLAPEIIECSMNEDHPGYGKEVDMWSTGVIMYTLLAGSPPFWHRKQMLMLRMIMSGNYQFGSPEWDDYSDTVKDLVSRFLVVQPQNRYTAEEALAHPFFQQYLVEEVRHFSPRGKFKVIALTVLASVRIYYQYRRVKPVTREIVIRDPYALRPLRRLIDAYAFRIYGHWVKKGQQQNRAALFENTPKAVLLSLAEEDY

MAPK8 (human) = MAPK8 (human) (UniProt P45983)
CSNK1D (human) = CSNK1D (human) (UniProt P48730)
MAP3K11 (human) = MAP3K11 (human) (UniProt Q16584)
Sequence of MAP3K11 (human) (Q16584 whole entry, looked up): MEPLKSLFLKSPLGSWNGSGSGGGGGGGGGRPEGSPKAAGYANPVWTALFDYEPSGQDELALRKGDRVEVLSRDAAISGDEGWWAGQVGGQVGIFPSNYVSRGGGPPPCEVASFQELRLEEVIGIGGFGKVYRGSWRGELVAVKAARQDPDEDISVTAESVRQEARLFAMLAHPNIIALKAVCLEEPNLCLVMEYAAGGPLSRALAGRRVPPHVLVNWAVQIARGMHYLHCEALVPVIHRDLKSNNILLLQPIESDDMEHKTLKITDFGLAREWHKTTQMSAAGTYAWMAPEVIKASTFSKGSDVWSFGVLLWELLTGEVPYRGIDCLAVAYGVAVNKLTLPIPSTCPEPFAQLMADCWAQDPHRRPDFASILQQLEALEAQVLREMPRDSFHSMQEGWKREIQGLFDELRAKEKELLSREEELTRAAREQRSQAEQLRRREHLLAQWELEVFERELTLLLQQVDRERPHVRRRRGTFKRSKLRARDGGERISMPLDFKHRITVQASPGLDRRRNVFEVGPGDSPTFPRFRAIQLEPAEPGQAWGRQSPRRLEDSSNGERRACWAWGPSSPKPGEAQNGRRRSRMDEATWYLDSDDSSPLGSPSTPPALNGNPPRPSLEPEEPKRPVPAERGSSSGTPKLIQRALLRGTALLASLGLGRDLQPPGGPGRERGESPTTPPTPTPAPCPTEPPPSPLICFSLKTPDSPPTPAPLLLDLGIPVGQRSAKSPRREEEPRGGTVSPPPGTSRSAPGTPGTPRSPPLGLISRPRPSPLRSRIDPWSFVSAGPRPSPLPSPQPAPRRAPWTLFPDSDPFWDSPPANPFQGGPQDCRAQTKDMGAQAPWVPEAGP

FGFR1 (human) = FGFR1 (human) (UniProt P11362)
MAP2K1 (human) = MAP2K1 (human) (UniProt Q02750)
IGF1R (human) = IGF1R (human) (UniProt P08069)
Sequence of IGF1R (human) (P08069 whole entry, looked up): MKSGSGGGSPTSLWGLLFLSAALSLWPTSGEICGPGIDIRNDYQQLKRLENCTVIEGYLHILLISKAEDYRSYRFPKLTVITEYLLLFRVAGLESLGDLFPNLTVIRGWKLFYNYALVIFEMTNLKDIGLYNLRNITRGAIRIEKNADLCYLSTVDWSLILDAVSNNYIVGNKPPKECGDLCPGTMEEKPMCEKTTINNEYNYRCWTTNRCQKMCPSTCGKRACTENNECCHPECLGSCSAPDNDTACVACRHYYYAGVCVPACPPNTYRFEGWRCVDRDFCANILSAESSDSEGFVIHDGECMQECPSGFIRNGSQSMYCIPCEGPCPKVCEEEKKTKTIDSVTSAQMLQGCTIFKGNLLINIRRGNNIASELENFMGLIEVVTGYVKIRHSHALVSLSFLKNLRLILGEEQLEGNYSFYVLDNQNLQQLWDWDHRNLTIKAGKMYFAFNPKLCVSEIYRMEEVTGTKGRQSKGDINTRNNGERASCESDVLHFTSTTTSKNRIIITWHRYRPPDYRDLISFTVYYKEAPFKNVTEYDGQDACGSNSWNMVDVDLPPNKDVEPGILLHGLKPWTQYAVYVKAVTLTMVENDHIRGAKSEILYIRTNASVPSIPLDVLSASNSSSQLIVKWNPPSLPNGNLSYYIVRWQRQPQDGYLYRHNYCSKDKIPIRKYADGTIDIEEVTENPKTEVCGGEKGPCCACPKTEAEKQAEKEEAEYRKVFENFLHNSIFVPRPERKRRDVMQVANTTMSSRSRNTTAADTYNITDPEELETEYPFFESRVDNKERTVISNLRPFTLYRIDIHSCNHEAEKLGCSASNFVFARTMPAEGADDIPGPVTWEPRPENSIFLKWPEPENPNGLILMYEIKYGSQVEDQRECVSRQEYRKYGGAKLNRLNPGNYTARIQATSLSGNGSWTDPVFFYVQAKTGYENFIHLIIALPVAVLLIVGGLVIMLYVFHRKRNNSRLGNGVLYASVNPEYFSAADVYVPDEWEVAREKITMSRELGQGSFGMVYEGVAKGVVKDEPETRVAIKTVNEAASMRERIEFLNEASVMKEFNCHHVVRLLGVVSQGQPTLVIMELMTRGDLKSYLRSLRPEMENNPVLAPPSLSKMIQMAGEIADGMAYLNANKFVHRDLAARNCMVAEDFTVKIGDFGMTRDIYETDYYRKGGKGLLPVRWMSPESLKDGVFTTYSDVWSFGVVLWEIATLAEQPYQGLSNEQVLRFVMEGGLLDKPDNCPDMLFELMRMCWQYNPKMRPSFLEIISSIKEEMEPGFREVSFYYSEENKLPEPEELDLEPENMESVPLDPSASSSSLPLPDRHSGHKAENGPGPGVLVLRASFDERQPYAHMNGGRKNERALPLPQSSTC

MAPKAPK5 (human) = MAPKAPK5 (human) (UniProt Q8IW41)
AKT3 (human) = AKT3 (human) (UniProt Q9Y243)
[2] = tested on: FLT4 (human), P35916 [Q890H]
AKT1 (human) = AKT1 (human) (UniProt P31749)
CLK4 (human) = CLK4 (human) (UniProt Q9HAZ1)
Sequence of CLK4 (human) (Q9HAZ1 whole entry, looked up): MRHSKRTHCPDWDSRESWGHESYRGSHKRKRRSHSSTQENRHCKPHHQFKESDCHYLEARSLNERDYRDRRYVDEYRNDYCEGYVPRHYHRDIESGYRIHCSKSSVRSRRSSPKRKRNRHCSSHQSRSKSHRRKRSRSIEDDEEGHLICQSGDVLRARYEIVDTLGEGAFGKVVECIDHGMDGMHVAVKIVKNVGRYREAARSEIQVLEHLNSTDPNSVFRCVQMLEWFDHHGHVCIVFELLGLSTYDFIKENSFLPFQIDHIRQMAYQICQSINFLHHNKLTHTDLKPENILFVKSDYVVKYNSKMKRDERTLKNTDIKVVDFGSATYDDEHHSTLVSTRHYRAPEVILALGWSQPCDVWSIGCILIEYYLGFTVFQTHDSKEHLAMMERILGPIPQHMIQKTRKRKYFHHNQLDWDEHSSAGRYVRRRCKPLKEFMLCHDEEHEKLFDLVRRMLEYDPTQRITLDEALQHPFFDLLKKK

MARK1 (human) = MARK1 (human) (UniProt Q9P0L2)
RPS6KA5 KD2 (human) = RPS6KA5 KD2 (human) (UniProt O75582)
ITK (human) = ITK (human) (UniProt Q08881)
INSR (human) = INSR (human) (UniProt P06213)
MAPKAPK2 (human) = MAPKAPK2 (human) (UniProt P49137)
MAP3K10 (human) = MAP3K10 (human) (UniProt Q02779)
TLK2 (human) = TLK2 (human) (UniProt Q86UE8)
Sequence of TLK2 (human) (Q86UE8 whole entry, looked up): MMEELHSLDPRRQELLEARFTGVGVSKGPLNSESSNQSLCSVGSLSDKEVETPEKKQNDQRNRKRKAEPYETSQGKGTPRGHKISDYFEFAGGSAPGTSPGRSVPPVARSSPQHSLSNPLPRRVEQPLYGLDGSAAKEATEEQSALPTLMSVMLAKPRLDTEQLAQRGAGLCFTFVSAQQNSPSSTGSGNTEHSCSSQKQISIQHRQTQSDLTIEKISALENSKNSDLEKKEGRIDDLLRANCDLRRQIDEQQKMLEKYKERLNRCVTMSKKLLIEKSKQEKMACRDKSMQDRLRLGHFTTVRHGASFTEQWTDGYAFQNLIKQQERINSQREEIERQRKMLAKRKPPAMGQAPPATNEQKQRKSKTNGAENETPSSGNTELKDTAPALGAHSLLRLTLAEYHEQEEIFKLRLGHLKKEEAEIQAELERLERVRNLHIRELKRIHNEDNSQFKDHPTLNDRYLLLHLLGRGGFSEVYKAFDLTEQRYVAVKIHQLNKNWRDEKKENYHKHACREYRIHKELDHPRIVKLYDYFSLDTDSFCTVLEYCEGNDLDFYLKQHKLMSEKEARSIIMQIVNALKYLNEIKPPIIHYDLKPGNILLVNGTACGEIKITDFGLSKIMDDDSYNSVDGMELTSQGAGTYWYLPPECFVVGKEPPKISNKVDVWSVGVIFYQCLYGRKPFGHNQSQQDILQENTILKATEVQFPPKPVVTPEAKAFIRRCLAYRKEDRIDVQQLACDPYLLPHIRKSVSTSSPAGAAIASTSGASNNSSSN

TXK (human) = TXK (human) (UniProt P42681)
PAK1 (human) = PAK1 (human) (UniProt Q13153)
EPHA3 (human) = EPHA3 (human) (UniProt P29320)
DAPK2 (human) = DAPK2 (human) (UniProt Q9UIK4)
CDC42BPA (human) = CDC42BPA (human) (UniProt Q5VT25)
HIPK1 (human) = HIPK1 (human) (UniProt Q86Z02)
PDPK1 (human) = PDPK1 (human) (UniProt O15530)

Sequence of EPHA6 (human) (Q9UF33 whole entry, looked up): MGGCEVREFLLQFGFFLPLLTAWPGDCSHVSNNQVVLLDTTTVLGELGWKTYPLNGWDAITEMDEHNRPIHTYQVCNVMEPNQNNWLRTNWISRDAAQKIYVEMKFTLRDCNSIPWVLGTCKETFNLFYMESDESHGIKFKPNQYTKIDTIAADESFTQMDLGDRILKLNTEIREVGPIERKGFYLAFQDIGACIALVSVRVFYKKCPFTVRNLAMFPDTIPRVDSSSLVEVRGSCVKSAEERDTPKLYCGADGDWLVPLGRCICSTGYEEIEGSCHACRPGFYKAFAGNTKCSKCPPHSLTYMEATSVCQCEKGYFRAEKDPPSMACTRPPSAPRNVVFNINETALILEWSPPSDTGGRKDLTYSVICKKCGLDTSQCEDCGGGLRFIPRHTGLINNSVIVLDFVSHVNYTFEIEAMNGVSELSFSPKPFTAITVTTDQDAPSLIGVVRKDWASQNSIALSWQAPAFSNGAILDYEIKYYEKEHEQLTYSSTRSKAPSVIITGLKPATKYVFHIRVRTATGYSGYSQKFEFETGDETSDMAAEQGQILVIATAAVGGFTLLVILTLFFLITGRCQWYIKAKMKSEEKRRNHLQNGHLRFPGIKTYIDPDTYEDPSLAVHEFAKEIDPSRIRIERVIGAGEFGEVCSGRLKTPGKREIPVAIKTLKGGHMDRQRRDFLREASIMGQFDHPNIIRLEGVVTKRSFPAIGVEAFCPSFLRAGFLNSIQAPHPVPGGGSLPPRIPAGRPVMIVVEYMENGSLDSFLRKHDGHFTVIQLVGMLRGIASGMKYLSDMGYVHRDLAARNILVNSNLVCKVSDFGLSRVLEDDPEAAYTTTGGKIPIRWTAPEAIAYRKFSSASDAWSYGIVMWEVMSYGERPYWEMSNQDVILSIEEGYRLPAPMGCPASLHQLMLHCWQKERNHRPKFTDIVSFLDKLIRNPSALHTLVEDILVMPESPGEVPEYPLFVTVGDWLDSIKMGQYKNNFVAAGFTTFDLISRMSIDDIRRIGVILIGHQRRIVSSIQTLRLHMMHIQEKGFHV

Compound: CN(C)S(=O)(=O)c1ccc2c(c1)/C(=C/c1cc3c([nH]1)CCCC3)C(=O)N2
- residual activity (CAMK2D (human)): 73.2%
- residual activity (EPHA4 (human)): 91.3%
- residual activity (BRAF (human)): 89.2%
- residual activity (EPHA6 (human)): 61.9%
- residual activity (STK38 (human)): 94.6%
- residual activity (CDK2 CCNA2 (human)): 90.6%
- residual activity (MINK1 (human)): 83.8%
- residual activity (CDK1 CCNB1 (human)): 75.4%
- residual activity [1]: 66.8%
- residual activity (BRSK2 (human)): 48.7%
- residual activity (PKN2 (human)): 84.3%
- residual activity (ULK3 (human)): 26.3%
- residual activity (NEK9 (human)): 93.2%
- residual activity (MAPK11 (human)): 108%
- residual activity (SRC (human)): 23.6%
- residual activity (GSG2 (human)): 116%
- residual activity (PHKG1 (human)): 72.4%
- residual activity (MAPK8 (human)): 91.1%
- residual activity (CSNK1D (human)): 99.7%
- residual activity (MAP3K11 (human)): 57.4%
- residual activity (FGFR1 (human)): 71.4%
- residual activity (MAP2K1 (human)): 88.7%
- residual activity (IGF1R (human)): 89.5%
- residual activity (MAPKAPK5 (human)): 99.8%
- residual activity (AKT3 (human)): 96.7%
- residual activity [2]: 78.1%
- residual activity (AKT1 (human)): 107%
- residual activity (CLK4 (human)): 50.7%
- residual activity (MARK1 (human)): 54.6%
- residual activity (RPS6KA5 KD2 (human)): 106%
- residual activity (ITK (human)): 61.2%
- residual activity (INSR (human)): 91.6%
- residual activity (MAPKAPK2 (human)): 101%
- residual activity (MAP3K10 (human)): 99.1%
- residual activity (TLK2 (human)): 102%
- residual activity (TXK (human)): 96%
- residual activity (PAK1 (human)): 96.1%
- residual activity (EPHA3 (human)): 98.6%
- residual activity (DAPK2 (human)): 93.5%
- residual activity (CDC42BPA (human)): 92.3%

Compound: COc1cc(Nc2c(C#N)cnc3cc(OCCCN4CCN(C)CC4)c(OC)cc23)c(Cl)cc1Cl
- residual activity (CAMK2D (human)): 94.6%
- residual activity (EPHA4 (human)): 27%
- residual activity (HIPK1 (human)): 96.3%
- residual activity (BRAF (human)): 91.7%
- residual activity (EPHA6 (human)): 4.38%
- residual activity (STK38 (human)): 85.1%
- residual activity (PDPK1 (human)): 89.8%
- residual activity (CDK2 CCNA2 (human)): 91.1%
- residual activity (MINK1 (human)): 1.21%
- residual activity (CDK1 CCNB1 (human)): 95.9%
- residual activity [1]: 99%
- residual activity (BRSK2 (human)): 94.2%
- residual activity (PKN2 (human)): 105%
- residual activity (ULK3 (human)): 100%
- residual activity (NEK9 (human)): 94%
- residual activity (MAPK11 (human)): 101%
- residual activity (SRC (human)): 6.05%
- residual activity (GSG2 (human)): 65.6%
- residual activity (PHKG1 (human)): 52.1%
- residual activity (MAPK8 (human)): 105%
- residual activity (CSNK1D (human)): 10.9%
- residual activity (MAP3K11 (human)): 13.5%
- residual activity (FGFR1 (human)): 64.4%
- residual activity (IGF1R (human)): 91.5%
- residual activity (MAPKAPK5 (human)): 94.7%
- residual activity (AKT3 (human)): 90.7%
- residual activity [2]: 44.1%
- residual activity (AKT1 (human)): 94.4%
- residual activity (CLK4 (human)): 76.6%
- residual activity (MARK1 (human)): 109%
- residual activity (RPS6KA5 KD2 (human)): 90.8%
- residual activity (ITK (human)): 103%
- residual activity (INSR (human)): 69.8%
- residual activity (MAPKAPK2 (human)): 94.7%
- residual activity (MAP3K10 (human)): 22.9%
- residual activity (TLK2 (human)): 92.2%
- residual activity (TXK (human)): 27.5%
- residual activity (PAK1 (human)): 11.7%
- residual activity (EPHA3 (human)): 31.7%
- residual activity (DAPK2 (human)): 82.9%
- residual activity (CDC42BPA (human)): 112%

Compound: C[C@@H]1CCN(C(=O)CC#N)C[C@@H]1N(C)c1ncnc2[nH]ccc12
- residual activity (CAMK2D (human)): 98.2%
- residual activity (EPHA4 (human)): 99.1%
- residual activity (HIPK1 (human)): 98.1%
- residual activity (BRAF (human)): 93.7%
- residual activity (EPHA6 (human)): 99%
- residual activity (STK38 (human)): 95.7%
- residual activity (PDPK1 (human)): 94.1%
- residual activity (CDK2 CCNA2 (human)): 89.5%
- residual activity (MINK1 (human)): 100%
- residual activity (CDK1 CCNB1 (human)): 90.8%
- residual activity (BRSK2 (human)): 86.9%
- residual activity (ULK3 (human)): 101%
- residual activity (NEK9 (human)): 96.2%
- residual activity (MAPK11 (human)): 103%
- residual activity (SRC (human)): 99.8%
- residual activity (GSG2 (human)): 77.9%
- residual activity (PHKG1 (human)): 90%
- residual activity (MAPK8 (human)): 108%
- residual activity (MAP3K11 (human)): 104%
- residual activity (FGFR1 (human)): 101%
- residual activity (MAP2K1 (human)): 112%
- residual activity (IGF1R (human)): 93.1%
- residual activity (MAPKAPK5 (human)): 97.3%
- residual activity (AKT3 (human)): 85.8%
- residual activity [2]: 97.5%
- residual activity (AKT1 (human)): 90.3%
- residual activity (CLK4 (human)): 111%
- residual activity (MARK1 (human)): 119%
- residual activity (RPS6KA5 KD2 (human)): 94.8%
- residual activity (ITK (human)): 99.1%
- residual activity (INSR (human)): 101%
- residual activity (MAPKAPK2 (human)): 96.6%
- residual activity (MAP3K10 (human)): 105%
- residual activity (TLK2 (human)): 94.4%
- residual activity (TXK (human)): 98.4%
- residual activity (PAK1 (human)): 108%
- residual activity (EPHA3 (human)): 94.1%
- residual activity (DAPK2 (human)): 89.5%
- residual activity (CDC42BPA (human)): 110%

Compound: N#C/C(=C\c1ccc(O)c(O)c1)C(=O)NCc1ccccc1
- residual activity (CAMK2D (human)): 104%
- residual activity (EPHA4 (human)): 99.5%
- residual activity (HIPK1 (human)): 101%
- residual activity (BRAF (human)): 109%
- residual activity (EPHA6 (human)): 95.7%
- residual activity (STK38 (human)): 99.1%
- residual activity (PDPK1 (human)): 74%
- residual activity (CDK2 CCNA2 (human)): 99.2%
- residual activity (MINK1 (human)): 97.9%
- residual activity (CDK1 CCNB1 (human)): 96.9%
- residual activity [1]: 93.8%
- residual activity (BRSK2 (human)): 99.3%
- residual activity (ULK3 (human)): 71.2%
- residual activity (NEK9 (human)): 97.2%
- residual activity (MAPK11 (human)): 98.7%
- residual activity (SRC (human)): 94.8%
- residual activity (GSG2 (human)): 104%
- residual activity (PHKG1 (human)): 92.6%
- residual activity (MAPK8 (human)): 99.1%
- residual activity (CSNK1D (human)): 98.3%
- residual activity (MAP3K11 (human)): 97%
- residual activity (FGFR1 (human)): 92.8%
- residual activity (MAP2K1 (human)): 94%
- residual activity (IGF1R (human)): 85.1%
- residual activity (MAPKAPK5 (human)): 94.2%
- residual activity (AKT3 (human)): 90.8%
- residual activity [2]: 87.7%
- residual activity (AKT1 (human)): 101%
- residual activity (CLK4 (human)): 94%
- residual activity (MARK1 (human)): 93.8%
- residual activity (RPS6KA5 KD2 (human)): 102%
- residual activity (ITK (human)): 98.8%
- residual activity (INSR (human)): 93.8%
- residual activity (MAPKAPK2 (human)): 101%
- residual activity (MAP3K10 (human)): 100%
- residual activity (TLK2 (human)): 105%
- residual activity (TXK (human)): 104%
- residual activity (PAK1 (human)): 97.7%
- residual activity (EPHA3 (human)): 97.2%
- residual activity (DAPK2 (human)): 98.5%
- residual activity (CDC42BPA (human)): 99.4%
